{"source": "paper PMC6362346", "about": "“Serendipita indica E5′NT modulates extracellular nucleotide levels in the plant apoplast and affects fungal colonization” (EMBO Reports, 2019)", "biological_target": "T1, SiE5′NT (Serendipita indica, UniProt G4T774)", "T1 construct": "gene PIIN_01005; untagged full-length with signal peptide and predicted GPI anchor, 35S promoter, expressed in Arabidopsis thaliana (line 303 1L3); detergent-solubilised membrane protein preparation", "T1 sequence (G4T774 20-579)": "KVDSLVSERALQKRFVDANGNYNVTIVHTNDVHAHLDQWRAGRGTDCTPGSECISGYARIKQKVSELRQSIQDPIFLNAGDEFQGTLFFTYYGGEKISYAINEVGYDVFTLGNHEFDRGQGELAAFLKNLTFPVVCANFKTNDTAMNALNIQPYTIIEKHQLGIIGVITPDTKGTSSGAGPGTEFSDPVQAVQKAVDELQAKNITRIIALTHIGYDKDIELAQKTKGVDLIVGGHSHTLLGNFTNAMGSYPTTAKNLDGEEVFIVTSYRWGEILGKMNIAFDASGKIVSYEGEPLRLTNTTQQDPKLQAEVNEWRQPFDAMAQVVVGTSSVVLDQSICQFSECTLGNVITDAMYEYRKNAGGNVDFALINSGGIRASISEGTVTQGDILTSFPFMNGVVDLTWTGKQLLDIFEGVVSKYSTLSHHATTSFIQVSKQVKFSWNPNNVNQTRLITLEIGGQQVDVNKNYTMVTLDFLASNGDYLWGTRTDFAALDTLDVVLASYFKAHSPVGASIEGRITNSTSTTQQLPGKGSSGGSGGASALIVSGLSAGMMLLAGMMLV", "assay": "phosphate release (EnzChek phosphate assay), membrane protein preparation of transgenic A. thaliana versus mCherry control line", "format": "biochemical", "details": "100 μM substrate, 10 mM Tris/MES, 2 mM MgCl2, 30 mM KCl, pH 6.5"}
{"compound": "Nc1ncnc2c1ncn2[C@@H]1O[C@H](COP(=O)(O)O)[C@@H](O)[C@H]1O", "note": "[AMP]", "values": [{"measurement": "phosphate release (EnzChek phosphate assay), membrane protein preparation of tra", "value": "production of a membrane‐localized enzyme capable of hydrolyzing ATP, ADP, and AMP"}]}
{"compound": "Nc1ncnc2c1ncn2[C@@H]1O[C@H](COP(=O)(O)OP(=O)(O)OP(=O)(O)O)[C@@H](O)[C@H]1O", "note": "[ATP]", "values": [{"measurement": "phosphate release (EnzChek phosphate assay), membrane protein preparation of tra", "value": "production of a membrane‐localized enzyme capable of hydrolyzing ATP, ADP, and AMP"}]}
